In series [1] the target is immobilized integrin α3β1 (VLA-3) (Homo sapiens, UniProt P26006). Put plainly: biochemical. How it is done: Single cycle kinetic experiments were conducted on a Biacore 3000 system using a CM5 sensor chip at 25 and 37 °C with a flow rate of 10 µl/min. After coupling of the VLA-3 receptor (R&D Systems) via standard EDC/NHS immobilization chemistry (7 min activation with EDC/NHS followed by a 7 min flush with VLA-3) in 10 mM NaOAc buffer at pH 6 containing 1 mM MnCl2, a […] solution of ethanolamine was injected for 7 min to block all amine reactive sites. Subsequently the analyte was flushed over the chip surface at a flow rate of 10 µl/min in HEPES buffered saline supplemented with 1 mM MnCl2.

Another series has as its target HT-29 cells (Homo sapiens, UniProt P26006). The series can be described thus: Competition with 200 nM B9-Biotin (flow cytometry). Type of series: binding.
In the next series the test system is guinea pig skin. The series can be described thus: Local skin inflammation model, immune cell infiltration. Type of series: in vivo. The note with it: s.c. 100 nmol. How it is done: (§1) Animals: Eighth Edition. W ashington, DC: The National Academies Press, 2011) were […]
(§2) Committee (LANUV AZ. 87- 51.04.2010.A278). All experiments were performed in the Institute […]
(§3) GmbH (Sulzf eld, Germany) were used. Mice were housed in individual ventilated cages under […]
(§4) humidity and a 12h dark/light cycle.
(§5) Soest, Germany) was given ad libitum. Guinea pigs were housed in conventional open cages in the same way as describe for mice. Animals were allowed to acclimatize to their […]
(§6) additional immunohistochemical stainings with antibodies against granulocytes/monocytes

The next series deals with mouse skin. The series is described as above. Type of series: in vivo. The note with it: immune-deficient Balb/c nu/nu mice, s.c., 200 nmol to 500 nmol, 24 h. How it is done:
as §1, §2, §3, §4, §5, §6

Another series concerns GPC-16 tumor cells. The series can be described thus: GPC-16 tumor model in guinea pigs. Type of series: in vivo, Guinea pig. How it is done: by incubation with a 1:50 dilution of the secondary antibody (biotinylated goat -ant i-r at Ig G, BD Pharmingen, #554014 ). After incubation with horseradish peroxidase (HRP) coupled streptavidin color development was performed using the DAB substrate kit. All immunohistochemical stained tissue sections were counterstained using haemalaun or […]
Assessment of anti-tumor efficacy in the GPC -16 tumor model in guinea pig GPC-16 cells (guinea pig colorectal adenocarcinoma) were acquired from LGC and were cultured in Eagle’s minimum essential medium with 10% FCS and 100 U/ml Penicillin and 100 µg/ml Streptomycin. For each experiment 10 f emale guinea pigs (8- 10 weeks old) per group were immunosuppressed with an intraperitoneal injection of 200 mg/kg cyclophosphamide (CPA) one day bef ore the tumor inoculation and repeated every 7- 10 days for 4 week s. Efficacy of the CPA treatment was verif ied by routine blood analysis bef ore f irst CPA treatment and on a week ly basis thereafter. For the evaluation of the anti-tumor efficacy of the Y9 the 10 animals were divided into two groups of 5 animals. […] The presence of tumors in the sk in sections was evaluated by a board certif ied veterinarian pathologist using a scoring system. […]
T o study whether a repeated subcutaneous dosing of Y9 has any local or systemic toxic effects on animals, the following dose escalation study was performed. […] B ody weig ht and general health observations were evaluated on a daily basis. […] Organs (sk in, brain, heart, k idney, liver, lung, ovaries/testis, spleen, local and distal lymph nodes, mesentery, small intestine, stomach, pancreas) were isolated af ter euthanasia with an isof lurane overdose for histopathology and body weight-normalized organ weights (brain, kidney, heart, liver, spleen) were calculated.
W eights of the carcass, brain, heart, kidney, liver and spleen were determined and body weight-normalized organ weight in % was calculated as follows: […]

For series [2] the following is noted: fresh mouse serum, 60 µM, extraction and RP-HPLC (C4) quantification at 214 and 375 nm.
Procedure: (§7) vor t exing the sample was incubated f or 48 h. At specif ic time points, the solution was again
(§8) vortexed, a sample (95 µl) was withdra wn and subjected to ultraf iltration (Vivaspin 500, 10 k Da
(§9) cutoff; 15 min, 16,000 g). The f iltrate was put on ice while the f ilter remainder was mixed with
(§10) an equal volume of ethanol (95%), vortexed and centrifuged (5 min, 16.000 g). W ith the
(§11) resulting supernatant, this procedure was repeated. The f inal supernatant was mixed with an
(§12) equal volume of f iltrate, shock frozen in liq uid nitr og en and stored at - 80 °C until analysis. RP -
(§13) HPLC analysis was performed using an analytical C4- RP column with a gradient of 5-65%
(§14) absorption at 214 and 375 nm (specif ic absorption maximum of the nitro-tyrosine building block
The absorption peak observed at the
For series [3] the following is noted: mice, local s.c. injection of 200 or 500 nmol, dot-blot, detection limit ~1 nM.
Procedure: (§15) according to standard procedures. From 20 ml antiserum, 1.5 mg purified antibody were
(§16) isolated and stored in aliquots at -20 °C in PBS + 0.01% thimerosal, 0.1% BSA diluted 1:1 with
(§17) glycerin (f inal concentration 227 µg/ml).
on a nitrocellulose membrane.
(§18) concentrations between 0.5 nM and 20 nM and s amples were also spotted in triplicates. After
(§19) drying, the membrane was soaked in TBST (150 mM NaCl, 50 mM Tris-HCl, pH 7.4, 0.05%
(§20) tween), blocked for 1 h at RT with 5% nonfat dry milk in TBST. The membrane was washed 3
(§21) 1:2000 in TBST, washed 3 times, incubated 1 h at RT with anti-rabbit-HRP (GE Healthcare)
(§22) diluted 1:5,000 in 5% nonf at dry milk in TBST. The membrane was f inally washed 3 times in
(§23) TBST and then incubated with ECL prime substrate (GE Healthcare). Chemiluminescent
(§24) signals were recorded in an LAS-4000 mini Image reader (Fuji). Spot intensities were
(§25) quantitated using Image J software. The calibration samples were used to prepare a linear
(§26) For the statistical analysis, mean (M) and standard deviation (SD) were calculated. T he
(§27) statistical analysis was p erf ormed with the GraphPad Prism Software, Version 5.0 (Graph Pad,
(§28) values of < 0.05 were considered signif icant.
Another series in a line: in vivo. The note with it: mouse, serum, sc.
The next series can be described thus: in vitro. To be noted: mouse, fresh mouse serum.

Positions of bridges follow the written chain, without caps; N, C: chain ends. Non-standard residues stand in square brackets, D forms with d. Residues, ends and D or L forms follow the SMILES beside them. Chains are numbered I, II in the order given. *: point of attachment. PEG28 = NCCOCCOCCOCCOCCOCCOCCOCCOCCOCCOCCOCCOCCOCCOCCOCCOCCOCCOCCOCCOCCOCCOCCOCCOCCOCCOCCOCCOCCC(=O)O; Tyr(3-NO2) = N[C@@H](Cc1ccc(O)c([N+](=O)[O-])c1)C(=O)O; Hyp = O=C(O)[C@@H]1C[C@@H](O)CN1; For = O=C* Some results are limits rather than exact numbers.

HT-29 cells, sequence (P26006 33-1051): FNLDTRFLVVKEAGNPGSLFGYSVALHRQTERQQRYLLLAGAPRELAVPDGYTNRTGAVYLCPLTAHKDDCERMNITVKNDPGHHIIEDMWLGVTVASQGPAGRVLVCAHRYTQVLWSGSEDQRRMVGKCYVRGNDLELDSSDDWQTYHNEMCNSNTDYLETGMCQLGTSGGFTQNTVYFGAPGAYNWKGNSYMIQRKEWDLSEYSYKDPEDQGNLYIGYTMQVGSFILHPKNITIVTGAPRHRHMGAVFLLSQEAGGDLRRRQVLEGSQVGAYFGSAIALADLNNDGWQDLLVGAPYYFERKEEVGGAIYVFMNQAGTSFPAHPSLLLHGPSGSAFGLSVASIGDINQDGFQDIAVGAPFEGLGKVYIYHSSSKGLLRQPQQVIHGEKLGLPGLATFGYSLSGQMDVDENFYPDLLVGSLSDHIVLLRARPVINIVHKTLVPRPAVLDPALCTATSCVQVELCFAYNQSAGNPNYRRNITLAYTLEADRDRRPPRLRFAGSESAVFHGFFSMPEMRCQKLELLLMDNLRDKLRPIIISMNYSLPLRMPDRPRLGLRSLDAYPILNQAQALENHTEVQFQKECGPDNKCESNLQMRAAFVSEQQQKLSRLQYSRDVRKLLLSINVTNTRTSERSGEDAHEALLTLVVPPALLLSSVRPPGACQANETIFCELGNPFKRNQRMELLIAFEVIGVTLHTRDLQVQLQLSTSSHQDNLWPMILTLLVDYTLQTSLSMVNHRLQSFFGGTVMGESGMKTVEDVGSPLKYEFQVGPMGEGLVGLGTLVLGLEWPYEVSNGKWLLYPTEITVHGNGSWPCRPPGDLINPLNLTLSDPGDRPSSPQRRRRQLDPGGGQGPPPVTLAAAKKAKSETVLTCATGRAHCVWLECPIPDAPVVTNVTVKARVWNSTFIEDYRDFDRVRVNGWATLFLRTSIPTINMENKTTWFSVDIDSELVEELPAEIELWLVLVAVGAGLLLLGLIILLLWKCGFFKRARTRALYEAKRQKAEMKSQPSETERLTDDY
HT-29 cells, sequence (P05556 21-798 partner): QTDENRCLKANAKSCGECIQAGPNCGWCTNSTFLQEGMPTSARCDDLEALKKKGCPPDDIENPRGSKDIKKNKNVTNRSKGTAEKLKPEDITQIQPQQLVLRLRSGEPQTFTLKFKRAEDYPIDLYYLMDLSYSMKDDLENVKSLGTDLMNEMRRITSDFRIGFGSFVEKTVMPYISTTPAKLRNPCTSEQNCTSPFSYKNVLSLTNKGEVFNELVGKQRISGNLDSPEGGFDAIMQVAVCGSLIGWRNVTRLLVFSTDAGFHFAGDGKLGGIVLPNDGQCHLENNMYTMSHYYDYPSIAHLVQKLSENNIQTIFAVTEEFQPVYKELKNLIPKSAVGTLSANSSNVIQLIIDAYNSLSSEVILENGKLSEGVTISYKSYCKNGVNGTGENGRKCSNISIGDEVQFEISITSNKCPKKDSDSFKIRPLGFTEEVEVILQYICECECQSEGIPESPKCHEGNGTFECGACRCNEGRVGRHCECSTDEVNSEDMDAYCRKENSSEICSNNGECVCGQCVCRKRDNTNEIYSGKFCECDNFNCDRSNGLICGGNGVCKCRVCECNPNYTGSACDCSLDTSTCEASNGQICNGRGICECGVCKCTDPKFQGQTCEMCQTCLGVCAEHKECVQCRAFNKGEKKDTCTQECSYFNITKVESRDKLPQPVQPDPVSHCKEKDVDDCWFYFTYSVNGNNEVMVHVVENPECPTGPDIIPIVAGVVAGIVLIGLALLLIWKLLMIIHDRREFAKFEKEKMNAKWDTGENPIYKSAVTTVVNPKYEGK
Procedure for in vitro: as §7, §8, §9, §10, §11, §12, §13, §14
The absorption peak observed at the
Procedure for in vivo: as §15, §16, §17
on a nitrocellulose membrane.
as §18, §19, §20, §21, §22, §23, §24, §25, §26, §27, §28

`CC[C@H](C)[C@H](NC(=O)[C@H](CCSC)NC=O)C(=O)N[C@@H](Cc1ccccc1)C(=O)N[C@@H](CC(C)C)C(=O)NCC(=O)NCC(=O)N[C@@H](CCCCNC(=O)CCOCCOCCOCCOCCOCCOCCOCCOCCOCCOCCOCCOCCOCCOCCOCCOCCOCCOCCOCCOCCOCCOCCOCCOCCOCCOCCOCCOCCNC(=O)[C@H]1CSSC[C@@H](N)C(=O)N[C@H](CC(=O)O)C(=O)NCC(=O)N[C@@H](Cc2ccc(O)c([N+](=O)[O-])c2)C(=O)NCC(=O)N2C[C@H](O)C[C@H]2C(=O)N[C@@H](CC(N)=O)C(=O)N1)C(=O)N[C@@H](CCCCNC(=O)CCOCCOCCOCCOCCOCCOCCOCCOCCOCCOCCOCCOCCOCCOCCOCCOCCOCCOCCOCCOCCOCCOCCOCCOCCOCCOCCOCCOCCNC(=O)[C@H]1CSSC[C@@H](N)C(=O)N[C@H](CC(=O)O)C(=O)NCC(=O)N[C@@H](Cc2ccc(O)c([N+](=O)[O-])c2)C(=O)NCC(=O)N2C[C@H](O)C[C@H]2C(=O)N[C@@H](CC(N)=O)C(=O)N1)C(=O)O` [Y9] (I: H-[dC][dD]G[Tyr(3-NO2)]G[Hyp]N[dC][PEG28] / II: H-[dC][dD]G[Tyr(3-NO2)]G[Hyp]N[dC][PEG28] / III: For-MIFLGGKK-OH; disulfide I:1-I:8, II:1-II:8; amide I:C-III:7, II:C-III:8) displayed a Kd in series [1] of 60 nM. Also, the “concentration to displace B9-Biotin relative to the monovalent binder” value on HT-29 cells is recorded as “four-fold lower”. Further, the immune infiltrate entry in the series on guinea pig skin (guinea pigs immune suppressed by four weekly injections of cyclophosphamide) is reported as “less intense”. Moreover, the “immune cell infiltration into the injection site” value with guinea pig skin (guinea pigs, 24 h) was “most pronounced”. The immune infiltrates entry with mouse skin is reported as “dose-dependent increases in immune infiltrates”. Besides, the “animals with tumors present after 35 days” value in the series on GPC-16 tumor cells (single dose 200 nmol mixed with 1.6–2 × 10^7 GPC-16 cells and Matrigel, s.c., CPA-treated Dunkin Hartley guinea pigs, control 8 out of 9) is listed as 3 out of 10. The “reduction of establishment of GPC-16 based tumor” value with GPC-16 tumor cells (single dose treatment during injection of tumor cells, guinea pigs) worked out at 67%. Moreover, in the series on GPC-16 tumor cells (single s.c. dose 200 nmol), the “undesired effects in guinea pigs” value is on record as “reddening at the injection site”. In addition, the “time Y9 remains largely intact” value in series [2] is recorded as more than 24 h. The “detection of binder peptide in serum after 24 h” value in [3] was “still detected”. In “in vivo”, this molecule had a half-life of approximately 2 h. Besides, in “in vivo” (200 nmol), the level at time molar at 1 h is 350 nM and the level at time molar at 7 h was found to be 75 nM. For the same molecule, in “in vitro”, the metabolised at 48 h, 60 µM was found to be 20%.

As usually defined, the Kd is the concentration at which binding is half-saturated. Usually half-life stands for the time needed for the level to fall by half in the phase considered. A lower half-life goes with rapid decline.
